Data published in ChEMBL document CHEMBL5380860, “Design, Synthesis, and Antitumor Activity of Potent and Selective EGFR L858R/T790M Inhibitors and Identification of a Combination Therapy to Overcome Acquired Resistance in Models of Non-small-cell Lung Cancer” (J Med Chem, 2023).

What was measured:
[1] = tested on: HCC827; assay: Antiproliferative activity against human HCC827 cells harboring EGFR exon del 19 mutant assessed as reduction in cell viability measured after 72 hrs by MTT assay; assay type: functional, cell-based; settings: HCC827, 72 h
[2] = Cytotoxicity against human A-431 cells harboring wild type EGFR assessed as reduction in cell viability measured after 72 hrs by MTT assay; assay type: toxicity, cell-based
[3] = Cytotoxicity against human A549 cells harboring wild type EGFR assessed as reduction in cell viability measured after 72 hrs by MTT assay; assay type: toxicity, cell-based
[4] = tested on: NCI-H1975; assay: Antiproliferative activity against human NCI-H1975 cells harboring EGFR L858R/T790M mutant assessed as reduction in cell viability measured after 72 hrs by MTT assay; assay type: functional, cell-based; settings: NCI-H1975, 72 h

C=CC(=O)Nc1cccc(Nc2nc(Nc3ccc(N4CCC(N5CCOCC5)CC4)cc3)nc3ccc(F)cc23)c1
IC50 [1]: 2300 nM
IC50 at 72 h [2]: 7590 nM
IC50 at 72 h [3]: 5900 nM
IC50 [4]: 1600 nM

C=CC(=O)Nc1cccc(Nc2nc(Nc3ccc(N4CCN(C)CC4)cc3)nc3cc(F)ccc23)c1
IC50 [1]: 1040 nM
IC50 at 72 h [2]: 9040 nM
IC50 at 72 h [3]: 7810 nM
IC50 [4]: 2340 nM

C=CC(=O)Nc1cccc(Nc2nc(Nc3ccc(N4CCOCC4)cc3)nc3ccc(Cl)cc23)c1
IC50 [1]: 8860 nM
IC50 at 72 h [2]: > 10000 nM
IC50 at 72 h [3]: > 10000 nM
IC50 [4]: 8560 nM

C=CC(=O)Nc1cccc(Nc2nc(Nc3ccc(N4CCN(C)CC4)cc3)nc3ccc([N+](=O)[O-])cc23)c1
IC50 [1]: 3700 nM
IC50 at 72 h [2]: > 10000 nM
IC50 at 72 h [3]: > 10000 nM
IC50 [4]: 6360 nM

C=CC(=O)Nc1cccc(Nc2nc(Nc3ccc(N4CCN(C)CC4)cc3)nc3c(F)cccc23)c1
IC50 [1]: 2340 nM
IC50 at 72 h [2]: > 10000 nM
IC50 at 72 h [3]: > 10000 nM
IC50 [4]: 5480 nM

C=CC(=O)Nc1ccccc1Nc1nc(Nc2ccc(N3CCN(C)CC3)cc2)nc2ccc(Cl)cc12
IC50 [1]: 1020 nM
IC50 at 72 h [2]: > 10000 nM
IC50 at 72 h [3]: > 10000 nM
IC50 [4]: 1320 nM

C=CC(=O)Nc1cccc(Nc2nc(Nc3ccc(N4CCN(C)CC4)cc3)nc3c2CCN(C(=O)OC(C)(C)C)C3)c1
IC50 [1]: > 10000 nM
IC50 at 72 h [2]: > 10000 nM
IC50 at 72 h [3]: > 10000 nM
IC50 [4]: > 10000 nM

C=CC(=O)Nc1cccc(Nc2nc(Nc3ccc(N(C)CCN(C)C)cc3OC)nc3ccc(F)cc23)c1
IC50 [1]: 6580 nM
IC50 at 72 h [2]: > 10000 nM
IC50 at 72 h [3]: > 10000 nM
IC50 [4]: 8750 nM

C=CC(=O)Nc1cccc(Nc2nc(Nc3ccc(N4CCN(C)CC4)cc3)nc3cccc(F)c23)c1
IC50 [1]: 784 nM
IC50 at 72 h [2]: 1840 nM
IC50 at 72 h [3]: 2310 nM
IC50 [4]: 1000 nM

C=CC(=O)Nc1cccc(Nc2nc(Nc3ccc(N4CCC(N5CCN(C)CC5)CC4)cc3OC)nc3ccc(Cl)cc23)c1
IC50 [1]: 1680 nM
IC50 at 72 h [2]: 6600 nM
IC50 at 72 h [3]: > 10000 nM
IC50 [4]: 1360 nM

C=CS(=O)(=O)Nc1cccc(Nc2nc(Nc3ccc(N4CCN(C)CC4)cc3)nc3ccc(Cl)cc23)c1
IC50 [1]: 1490 nM
IC50 at 72 h [2]: 8770 nM
IC50 at 72 h [3]: > 10000 nM
IC50 [4]: 1030 nM

C=CC(=O)Nc1cccc(Nc2nc(Nc3ccc(N4CCC(N5CCN(C)CC5)CC4)cc3)nc3ccc(Cl)cc23)c1
IC50 [1]: 25 nM
IC50 at 72 h [2]: 1620 nM
IC50 at 72 h [3]: 2100 nM
IC50 [4]: 28 nM

C=CC(=O)Nc1cccc(Nc2nc(Nc3ccc(N4CCN(C)CC4)cc3)nc3cc(Cl)ccc23)c1
IC50 [1]: 1850 nM
IC50 at 72 h [2]: 7620 nM
IC50 at 72 h [3]: 5790 nM
IC50 [4]: 3280 nM

C=CC(=O)Nc1cccc(Nc2nc(Nc3ccc(N4CCN(C)CC4)cc3)nc3c(Cl)cccc23)c1
IC50 [1]: 4640 nM
IC50 at 72 h [2]: > 10000 nM
IC50 at 72 h [3]: > 10000 nM
IC50 [4]: 5630 nM

CCC(=O)Nc1cccc(Nc2nc(Nc3ccc(N4CCN(C)CC4)cc3)nc3ccc(Cl)cc23)c1
IC50 [1]: 6480 nM
IC50 at 72 h [2]: > 10000 nM
IC50 at 72 h [3]: > 10000 nM
IC50 [4]: 7330 nM

C=CC(=O)Nc1cccc(Nc2nc(Nc3ccc(N4CCN(C)CC4)c(F)c3)nc3ccc(Cl)cc23)c1
IC50 [1]: 19 nM
IC50 at 72 h [2]: 2310 nM
IC50 at 72 h [3]: 1500 nM
IC50 [4]: 45 nM

C=CC(=O)Nc1cccc(Nc2nc(Nc3ccc(N4CCC(N(C)C)CC4)cc3OC)nc3ccc(F)cc23)c1
IC50 [1]: 1080 nM
IC50 at 72 h [2]: > 10000 nM
IC50 at 72 h [3]: > 10000 nM
IC50 [4]: 2430 nM

C=CC(=O)Nc1cccc(Nc2nc(Nc3ccc(N4CCC(N5CCOCC5)CC4)cc3OC)nc3ccc(Cl)cc23)c1
IC50 [1]: 4590 nM
IC50 at 72 h [2]: > 10000 nM
IC50 at 72 h [3]: > 10000 nM
IC50 [4]: 5240 nM

C=CC(=O)Nc1cccc(Nc2nc(Nc3ccc(C4CCN(C)CC4)cc3)nc3ccc(F)cc23)c1
IC50 [1]: 1850 nM
IC50 at 72 h [2]: > 10000 nM
IC50 at 72 h [3]: 5860 nM
IC50 [4]: 1090 nM

C=CC(=O)Nc1cccc(Nc2nc(Nc3ccc(N4CCN(C)CC4)cc3)nc3ccc(C)cc23)c1
IC50 [1]: 1550 nM
IC50 at 72 h [2]: 1100 nM
IC50 at 72 h [3]: 2310 nM
IC50 [4]: 1980 nM

C=CC(=O)Nc1cccc(Nc2nc(Nc3ccc(C4CCN(C)CC4)cc3)nc3ccc(Cl)cc23)c1
IC50 [1]: 2700 nM
IC50 at 72 h [2]: > 10000 nM
IC50 at 72 h [3]: > 10000 nM
IC50 [4]: 3410 nM

C=CC(=O)Nc1cccc(Nc2nc(Nc3ccc(N4CCC(N5CCN(C)CC5)CC4)cc3)nc3ccc(F)cc23)c1
IC50 [1]: 18 nM
IC50 at 72 h [2]: 1680 nM
IC50 at 72 h [3]: 1520 nM
IC50 [4]: 24 nM

C=CC(=O)Nc1cccc(Nc2nc(Nc3ccc(N4CCC(N(C)C)CC4)cc3)nc3ccc(Cl)cc23)c1
IC50 [1]: 65 nM
IC50 at 72 h [2]: 2020 nM
IC50 at 72 h [3]: 1830 nM
IC50 [4]: 174 nM

C=CC(=O)Nc1cccc(Nc2nc(Nc3ccc(N(C)CCN(C)C)cc3OC)nc3ccc(Cl)cc23)c1
IC50 [1]: 5980 nM
IC50 at 72 h [2]: > 10000 nM
IC50 at 72 h [3]: > 10000 nM
IC50 [4]: 6840 nM

C=CC(=O)Nc1cccc(Nc2nc(Nc3ccc(N4CCN(C)CC4)cc3)nc3ccc(Br)cc23)c1
IC50 [1]: 1900 nM
IC50 at 72 h [2]: 5420 nM
IC50 at 72 h [3]: 8710 nM
IC50 [4]: 2630 nM

C=CC(=O)Nc1cccc(Nc2nc(Nc3ccc(N4CCN(C)CC4)cc3OC)nc3ccc(F)cc23)c1
IC50 [1]: 98 nM
IC50 at 72 h [2]: 3250 nM
IC50 at 72 h [3]: 1520 nM
IC50 [4]: 234 nM

C=CC(=O)Nc1cccc(Nc2nc(Nc3ccc(N(C)CCN(C)C)cc3)nc3ccc(F)cc23)c1
IC50 [1]: 850 nM
IC50 at 72 h [2]: 3150 nM
IC50 at 72 h [3]: 2570 nM
IC50 [4]: 1790 nM

C=CC(=O)Nc1cccc(Nc2nc(Nc3ccc(N4CCC(N5CCN(C)CC5)CC4)cc3OC)nc3ccc(F)cc23)c1
IC50 [1]: 1060 nM
IC50 at 72 h [2]: > 10000 nM
IC50 at 72 h [3]: 8950 nM
IC50 [4]: 1020 nM

C=CC(=O)Nc1cccc(Nc2nc(Nc3ccc(N4CCC(N5CCOCC5)CC4)cc3OC)nc3ccc(F)cc23)c1
IC50 [1]: 3930 nM
IC50 at 72 h [2]: > 10000 nM
IC50 at 72 h [3]: > 10000 nM
IC50 [4]: 4620 nM

CC(C)=CC(=O)Nc1cccc(Nc2nc(Nc3ccc(N4CCN(C)CC4)cc3)nc3ccc(Cl)cc23)c1
IC50 [1]: 884 nM
IC50 at 72 h [2]: 3290 nM
IC50 at 72 h [3]: 5330 nM
IC50 [4]: 874 nM

C=CC(=O)Nc1cccc(Nc2nc(Nc3ccc(N4CCC(N(C)C)CC4)cc3)nc3ccc(F)cc23)c1
IC50 [1]: 56 nM
IC50 at 72 h [2]: 1840 nM
IC50 at 72 h [3]: 1260 nM
IC50 [4]: 165 nM

C=CC(=O)Nc1ccc(Nc2nc(Nc3ccc(N4CCN(C)CC4)cc3)nc3ccc(Cl)cc23)cc1
IC50 [1]: 1280 nM
IC50 at 72 h [2]: > 10000 nM
IC50 at 72 h [3]: > 10000 nM
IC50 [4]: 2320 nM

C=CC(=O)Nc1cccc(Nc2nc(Nc3ccc(N4CCN(C)CC4)cc3)nc3c2CCCC3)c1
IC50 [1]: 2310 nM
IC50 at 72 h [2]: 4560 nM
IC50 at 72 h [3]: 5640 nM
IC50 [4]: 3420 nM

C/C=C/C(=O)Nc1cccc(Nc2nc(Nc3ccc(N4CCN(C)CC4)cc3)nc3ccc(Cl)cc23)c1
IC50 [1]: 221 nM
IC50 at 72 h [2]: 4530 nM
IC50 at 72 h [3]: 3650 nM
IC50 [4]: 231 nM

C=CC(=O)Nc1cccc(Nc2nc(Nc3ccc(N4CCN(C)CC4)cc3)nc3cc(OC)ccc23)c1
IC50 [1]: 4310 nM
IC50 at 72 h [2]: > 10000 nM
IC50 at 72 h [3]: > 10000 nM
IC50 [4]: 7840 nM

C=CC(=O)Nc1cccc(Nc2nc(Nc3ccc(N(C)CCN(C)C)cc3)nc3ccc(Cl)cc23)c1
IC50 [1]: 950 nM
IC50 at 72 h [2]: 2890 nM
IC50 at 72 h [3]: 2300 nM
IC50 [4]: 1240 nM
